Source: patent publication US20100222365A1, “SUBSTITUTED TRIAZOLE DERIVIATIVES AS OXYTOCIN ANTAGONISTS” (Pfizer Inc, priority 2005, published 2010)

Target: T1, Oxytocin receptor (CHO-OTR/NFAT-β-Lactamase cells) (Homo sapiens, UniProt P30559)
T1 construct: expressed in transfected cells; host or cells: CHO-OTR cell line, further transfected with the NFAT-β-lactamase reporter construct
T1 sequence (P30559 1-389): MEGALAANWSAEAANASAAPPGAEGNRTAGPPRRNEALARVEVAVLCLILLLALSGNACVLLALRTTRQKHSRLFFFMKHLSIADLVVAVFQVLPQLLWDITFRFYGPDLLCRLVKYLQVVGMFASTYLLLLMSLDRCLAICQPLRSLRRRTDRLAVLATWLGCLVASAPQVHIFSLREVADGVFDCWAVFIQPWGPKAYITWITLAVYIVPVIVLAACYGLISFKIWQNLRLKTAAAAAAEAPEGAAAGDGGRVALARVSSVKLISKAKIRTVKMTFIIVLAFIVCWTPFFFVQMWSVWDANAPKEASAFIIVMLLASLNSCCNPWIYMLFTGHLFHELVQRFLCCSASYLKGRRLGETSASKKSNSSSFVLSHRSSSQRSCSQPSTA
Assay: Oxytocin Receptor Beta-lactamase Assay
Assay type: cell-based
Conditions: oxytocin stimulation 4 hours, read-out: Oxytocin antagonist activity, expressed as a Ki value
Protocol: A suitable assay for determining the Oxytocin antagonist activity of a compound is detailed herein below.
Oxytocin Receptor Beta-lactamase Assay:
Cell Culture: Cells used are CHO-OTR/NFAT-β-Lactamase. The NFAT-β-lactamase expression construct was transfected into the CHO-OTR cell line and clonal populations were isolated via fluorescence activated cell sorting (FAGS). An appropriate clone was selected to develop the assay.
Culturing cells—CHO-OTR-NFAT-βLactamase cells were grown in growth medium. Cells were harvested when they reached 80-90% confluence removing the medium and washing with pre-warmed PBS. […]
Cells grown at 80-90% confluence were harvested and counted. […]
Preparation of 1 ml of 6× Loading Buffer with Enhanced Loading Protocol (this requires scale-up according to number of plates to be screened) • 12 μl of solution A (1 mM CCF4-AM in Dry DMSO) was added to […] of solution B (100 mg/ml Pluronic-F127 in DMSO+0.1% Acetic Acid) and vortexed. • The resulting solution was added to 925 μl of solution C (24% w/w PEG400, 18% TR40 v/v in water). • 75 μl of solution D was added (200 mM probenecid in 200 mM NaOH). • 10 μl of 6× Loading Buffer was added to all wells and incubated for 1.5 hrs-2 hrs at room temperature in the dark. • The plates were read using an UL Analyst, Excitation 405 nm, Emission 450 nm and 530 nm, gain optimal, lagtime 0.40 μs integration, 4 flashes, bottom reading.

COc1ccc(-n2c(C)nnc2-c2cnc(Oc3cccc(C)c3C)cn2)cn1 [Example 6]
Ki: 5.5 nM
